The values below are quoted from earlier work in publication PMC3853718 (Journal of Translational Medicine, 2013).

One series concerns solid tumor patients. The following applies: cited from earlier work.
A further series concerns patients. As to conditions: cited from earlier work; for toxicity: 1-hour infusion on days 1, 8, 15 in a 4-week cycle.
A further series concerns healthy volunteers. More on the design: method as in PMID 17115157. As to conditions: single dose of 160 mg; cited from earlier work.
For a further series, the system named is nude mice. The following applies: once-daily administration for 7 days in nude mice; cited from earlier work.
The subject of the next series is mouse xenograft model. The following applies: cited from earlier work.

Where two headings read alike, the source gives them in different places.

As for `O=C(NC1CCNCC1)c1[nH]ncc1NC(=O)c1c(Cl)cccc1Cl` [AT7519], the objective responses result in the series on solid tumor patients (patient with metastatic NSCLC) is “one PR”.
Take `Cc1ncc(-c2ccnc(Nc3ccc(S(C)(=O)=O)cc3)n2)n1C(C)C` [AZD5438]: the tolerability entry in the series with patients (40 mg four times a day, continuous daily dosing schedules, advanced solid tumors) is reported as “not tolerated”. Moreover, the DLT entry with healthy volunteers was “nausea and vomiting”. Also, the objective responses result with solid tumor patients (3 phase 1 trials) is recorded as “No responses”.
`CC(=O)c1c(C)c2cnc(Nc3ccc(N4CCNCC4)cn3)nc2n(C2CCCC2)c1=O` [PD0332991]: the DLTs result with patients is listed as “neutropenia”. Further, the objective responses result in the series on solid tumor patients (patient with testicular cancer among 33 patients) is “one PR”.
`CC(C)CC(=O)Nc1[nH]nc2c1CN(C(=O)C1CCN(C)CC1)C2(C)C` [PHA793887]: the toxicity entry is “grade 4 hepatic failure” in the series with patients (dose level of 66 mg/m^2, one patient) and “fatal hepatorenal failure” with patients (third dose level of 44 mg/m^2, one patient). Further, the objective responses entry in the series with solid tumor patients (first-in-human study in solid tumor patients) was “did not show any objective responses”.
Consider `CN1CC[C@H](c2c(O)cc(O)c3c(=O)cc(-c4ccccc4Cl)oc23)[C@H](O)C1` [flavopiridol], for which the dose-limiting toxicity result was “dose-limiting diarrhea” in the series with patients (72-hour continuous infusion trials) and “dose-limiting neutropenia” in the series with patients (daily 1-hour infusion schedule). For the same molecule, the objective responses entry with solid tumor patients (55 patients, 1-hour daily infusion for 5 days, 3 days, or 1 day in a 21-day cycle) is recorded as “No objective responses”; in the series on solid tumor patients (72-hour continuous infusion every 2 weeks, study of 76 patients, patient with renal cancer) it was “one PR”; with solid tumor patients (72-hour continuous infusion every 2 weeks, trial of 38 patients, patient with gastric cancer), “one CR”. Moreover, the “maximum tolerated dose, defined as the dose associated with 20% weight loss” value in the series with nude mice is on record as under 10 mg/kg. Also, in the series on mouse xenograft model, the “minimum effective dose, defined as >50% tumor growth inhibition” value is listed as 10 mg/kg.
As to `CC[C@H](CO)Nc1nc(NCc2ccccc2)c2ncn(C(C)C)c2n1` [seliciclib], the Dose-limiting toxicities entry with patients (orally twice daily for 7 days of a 21-day schedule) is “hypokalemia, hyponatremia, elevated gamma-glutamyl transferase, hyperglycemia, and vasculitic rash”. Besides, the values for the objective responses entry in the series on solid tumor patients (patient with hepatocellular carcinoma among 56 patients) and with solid tumor patients (separate trial) were “one PR” and “No responses”, respectively.
